Measured values published in publication PMC9421654, “Discovery of Substituted Di(pyridin-2-yl)-1,2,4-thiadiazol-5-amines as Novel Macrofilaricidal Compounds for the Treatment of Human Filarial Infections” (Journal of Medicinal Chemistry, 2022).
Values after ≈ are worked out from the molar mass of the structure shown. Values joined by “and” are separate entries in the source; they are usually repeats but may differ in a detail not shown here. Equal entries are not always repeated. Where two headings read alike, the source gives them in different places. Marks after values point to notes of the source that are not given here.

Assays:
[1] = system: O. gutturosa adult male worms; experiment: O. gutturosa adult worm ex vivo assay, motility; format: cell-based, Onchocerca gutturosa; details: Onchocerca gutturosa
In short: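 Adult male O. gutturosa from naturally infected cattle were cultured in supplemented MEM at 37 °C, 5% CO2, with four worms per concentration in serial 1-in-4 dilutions. Motility (0–10 scale) was scored every 24 h to 120 h. EC50 (geomean, n=2) for motility reduction came from 4PL fits, and viability was checked by MTT at 120 h.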

[2] = system: O. gutturosa adult male worms; experiment: O. gutturosa adult worm ex vivo assay, MTT/formazan viability; format: cell-based, Onchocerca gutturosa; details: Onchocerca gutturosa, supplement; SD in brackets in the PDF table; read-out: O. gutturosa EC50 (uM) MTT viability inhibition
In short: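 Adult male worms from naturally infected Gambian cattle were kept individually in MEM with 10% newborn calf serum at 37 °C, 5% CO2; four worms per concentration. Motility was scored 0-10 every 24 h to 120 h as a percentage of maximum, with ≥50% reduction versus untreated counted active. Afterwards, MTT (0.5 mg/mL, 30 min) formazan was read at 490 nm.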

[3] = Kinetic solubility measurement; format: physicochemical; details: for solubility kinetic at 24 h: 10 mM DMSO stock solutions
In short: (§1)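 Human and rat liver microsomes (0.3 mg/mL) with 1 mM NADPH and 3µM substrate, 30 minutes at 37 °C in pH 7.4 phosphate/MgCl2, triplicate; LC-MS/MS percentage remaining. LogD: octanol/aqueous buffer (pH 7.4, 2.2, 6.8, 5), 24 h shaking at room temperature. Kinetic solubility: 200 µM, 2% DMSO, 24 h, filtered.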

[4] = LogD measurement (octanol-water); format: physicochemical
In short: as §1

[5] = Liver microsome metabolic stability assay, human; format: in vitro ADME; details: 3 μM, 30 min
Experimental: (§2) Liver Microsome Metabolic Stability Assay: Incubations were performed at 37 °C in a Dubnoff Shaking water bath using 2 mL 96-well incubation plates. Liver microsome protein concentration was 0.3 mg/mL the final concentration of NADPH was 1 mM. Substrate concentrations are 3µM, incubation time is 30 minutes, and all tests are done in triplicate. The incubation was conducted in 200 mM Phosphate buffer containing 2 mM magnesium chloride, pH=7.4 and the total incubation volume was 0.5 mL. Samples were analyzed via LC-MS/MS and reported as percentage remaining after 30minute incubation, which can then be converted to half-life and intrinsic clearance. […]

[6] = Liver microsome metabolic stability assay, mouse; format: in vitro ADME; details: 3 μM, 30 min; for Rat Microsomes: Tables 2 and 3, footnote: tested in the mouse liver microsome assay
Experimental: as §2

[7] = Liver S9 metabolic stability assay, rat; format: in vitro ADME; details: 3 μM, 60 min
In short: (§3)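 Rat and human liver S9 (0.75 and 1.2 mg/ml) with 1 mM NADPH, 0.5 mM UDPGA, 2.5 mM GSH, 0.05 mg/ml PAPS, 3µM substrate, 60 min at 37 °C in Tris/MgCl2 pH 7.4. Mouse microsomes 0.3 mg/mL, 1 mM NADPH, 3µM, 30 min, phosphate pH 7.4. LC-MS/MS, % remaining, triplicate.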

[8] = Liver S9 metabolic stability assay, human; format: in vitro ADME; details: 3 μM, 60 min
In short: as §3

[9] = system: O. volvulus L5 larvae; experiment: O. volvulus L5 ex vivo assay, motility; format: cell-based; details: Onchocerca volvulus, 504 h, read-out: O. volvulus L5 % inhibition of motility
Experimental: O. volvulus larvae (L4) were prepared using cryopreserved O. volvulus L3 cultured in a medium containing 1:1 NCTC-109 and IMDM (Iscove’s modified Dulbecco’s medium) supplemented with Glutamax (1×) and 2× Antibiotic-Antimycotic (Life Technologies). This culturing medium was then added in transwell 24-well plates containing human umbilical vein endothelial cell (HUVEC) monolayers, containing the L4 larvae. A week prior to conducting an assay, the cultured O. volvulus larvae (L5) were transferred into a Petri dish containing fresh medium. Aliquots of 8–10 worms were retrieved from the Petri dish and placed inside new transwells over newly seeded HUVEC monolayers in the medium described above. After the transfer of O. volvulus L5 to the plates, the test compounds were dissolved in DMSO, added to each well, and incubated at 37 °C in a 5% CO2. The media containing freshly prepared compounds were partially replaced every 2–3 days for 14 days. After 14 days, the media were completely replaced. The untreated control contains the media described above with a final concentration of 0.05% DMSO. The motility was measured every 2–3 days with the following scale: 100% motility, constant coiling movement; 75% motility, slower coiling; 50% motility, slow and intermittent movement; 25% motility, very slow movement or twitching; and 0% motility, no movement. The motility was measured visually by two operators. On day 28, the viability of O. volvulus L5 was measured by MTT. Following washout and incubation during 1 h in PBS under 5% CO2, worms were observed under an inverted microscope. Worms were considered dead if no staining or less than 50% within the worm was observed. Otherwise, if worms stained blue or more than 50% stained, then they are considered alive. All test treatments were performed in duplicates. Significance was determined using a t test.

[10] = system: O. volvulus L5 larvae; experiment: O. volvulus L5 ex vivo assay, MTT viability; format: cell-based, Onchocerca volvulus; details: Day 21, 1 uM
Experimental: This culturing medium was then added in transwell 24-well plates containing human umbilical vein endothelial cell (HUVEC) monolayers, containing the L4 larvae. A week prior to conducting an assay, the cultured O. volvulus larvae (L5) were transferred into a Petri dish containing fresh medium. […] After the transfer of O. volvulus L5 to the plates, the test compounds were dissolved in DMSO, added to each well, and incubated at 37 °C in a 5% CO2. The media containing freshly prepared compounds were partially replaced every 2–3 days for 14 days. After 14 days, the media were completely replaced. The untreated control contains the media described above with a final concentration of 0.05% DMSO. […] The motility was measured visually by two operators. […] Following washout and incubation during 1 h in PBS under 5% CO2, worms were observed under an inverted microscope. Worms were considered dead if no staining or less than 50% within the worm was observed. Otherwise, if worms stained blue or more than 50% stained, then they are considered alive. All test treatments were performed in duplicates. Significance was determined using a t test.

[11] = biological target: T1, P-gp (MDR1) (Homo sapiens, UniProt P08183); experiment: MDCK/MDR1 permeability and efflux; format: in vitro ADME; details: dog
T1 construct: expressed in transfected cells; host or cells: MDCK (Madin Darby canine kidney) cells
Excerpt: Our approach was to target compounds with efflux ratio (ER) >2.5 in the MDCK cell line transfected with MDR1 (multidrug resistance-1 transfected Madin Darby canine kidney cell line). […] Our goal was to impart structural elements designed to impart Pgp recognition.

[12] = biological target: T2, hERG potassium channels (KCNH2, expressed in HEK293 cells) (Homo sapiens, UniProt Q12809); experiment: hERG inhibition; format: cell-based; details: supplement
T2 construct: expressed in transfected cells

[13] = system: THLE-2 cells; experiment: THLE-2 cytotoxicity assay (ATP); details: Homo sapiens, THLE-2, read-out: THLE IC50
Experimental: In vitro cytotoxicity of select compounds was tested in a “normal” proliferating transformed human liver epithelial (THLE-2) cell line.[35] Compounds were incubated in THLE-2 cells for 24 and 72 h, and adenosine triphosphate (ATP) levels were used as an indicator of cell viability.
THLE-2 Cytotoxicity Assay: THLE-2 cells (ATCC, catalog #CRL-2706) were plated in LHC-8 Media (Invitrogen, catalog #12679015) supplemented with fetal bovine serum (GE, catalog #SH30088.03), 70 ng/mL phosphoethanolamine (Sigma, catalog #P0503), 5 ng/mL EGF (Sigma, catalog #E9644), 1X penicillin/streptomycin (Gibco, catalog #15140148), and 1X glutamine (Invitrogen, catalog #25030024) in 384-well clear-bottom, black walled plates at a density of 3750 cells/well (15μL/well). After plating, cells were incubated overnight at 37°C in an incubator with 5% CO2 and 90% humidity. Compounds were first serially diluted in dimethyl sulfoxide then diluted in LHC-8 media growth media to 2X concentration. Cells were dosed with 15μL of each dose for final concentrations between 0.01 – 300 μM. Cells were incubated with compounds for 24 or 72 hours. Cytotoxicity was determined with Cell Titer Glo Luminescent ATP Assay (Promega, catalog #G7573) according to the manufacturer’s instructions. Tamoxifen (Sigma, catalog #BC9353476) was used as a positive control. levels at each dose were normalized to that of cells dosed with dimethyl sulfoxide vehicle alone and IC50 values were calculated from non-linear regression fits of dose-response curves plotted

[14] = read-out: O. gutturosa EC50 μM (SD), ex vivo adult worm motility reduction, SD in brackets
[15] = read-out: O. gutturosa EC50 (uM) motility inhibition, supplement, SD in brackets in the PDF table
[16] = supplement, read-out: measured logD
[17] = read-out: O. gutturosa EC50, adult worm motility, bound stated

T2 sequence (Q12809 whole entry): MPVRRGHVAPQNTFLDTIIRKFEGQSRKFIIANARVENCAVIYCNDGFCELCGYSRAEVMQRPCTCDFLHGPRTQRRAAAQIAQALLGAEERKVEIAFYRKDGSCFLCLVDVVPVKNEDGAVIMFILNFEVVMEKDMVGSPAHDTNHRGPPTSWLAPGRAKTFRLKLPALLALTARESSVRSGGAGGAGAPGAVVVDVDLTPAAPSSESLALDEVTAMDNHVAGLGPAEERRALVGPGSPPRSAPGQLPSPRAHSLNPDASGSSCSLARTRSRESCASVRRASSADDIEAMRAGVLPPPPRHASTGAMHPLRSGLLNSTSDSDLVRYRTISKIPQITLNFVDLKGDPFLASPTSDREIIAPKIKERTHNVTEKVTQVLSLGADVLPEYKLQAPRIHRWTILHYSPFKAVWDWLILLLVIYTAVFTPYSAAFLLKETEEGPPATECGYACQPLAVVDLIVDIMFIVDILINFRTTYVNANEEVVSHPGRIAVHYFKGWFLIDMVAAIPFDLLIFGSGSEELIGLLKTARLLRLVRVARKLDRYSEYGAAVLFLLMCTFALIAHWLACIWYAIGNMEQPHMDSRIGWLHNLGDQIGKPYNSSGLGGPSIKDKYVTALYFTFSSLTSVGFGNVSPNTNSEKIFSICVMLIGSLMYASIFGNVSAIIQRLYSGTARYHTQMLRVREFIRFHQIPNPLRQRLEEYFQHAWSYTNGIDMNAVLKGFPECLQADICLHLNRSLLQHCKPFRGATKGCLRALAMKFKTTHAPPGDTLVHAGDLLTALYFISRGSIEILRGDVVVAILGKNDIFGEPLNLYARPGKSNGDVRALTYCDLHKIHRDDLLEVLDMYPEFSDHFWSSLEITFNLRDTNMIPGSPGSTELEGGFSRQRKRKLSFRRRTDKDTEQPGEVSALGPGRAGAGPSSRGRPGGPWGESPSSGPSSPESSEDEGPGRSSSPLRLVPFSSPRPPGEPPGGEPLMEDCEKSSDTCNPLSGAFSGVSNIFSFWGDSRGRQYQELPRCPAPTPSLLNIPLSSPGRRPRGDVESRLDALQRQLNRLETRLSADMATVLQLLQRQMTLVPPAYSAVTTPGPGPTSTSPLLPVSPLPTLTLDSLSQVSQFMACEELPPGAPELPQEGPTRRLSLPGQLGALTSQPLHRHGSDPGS
T1 sequence (P08183 whole entry): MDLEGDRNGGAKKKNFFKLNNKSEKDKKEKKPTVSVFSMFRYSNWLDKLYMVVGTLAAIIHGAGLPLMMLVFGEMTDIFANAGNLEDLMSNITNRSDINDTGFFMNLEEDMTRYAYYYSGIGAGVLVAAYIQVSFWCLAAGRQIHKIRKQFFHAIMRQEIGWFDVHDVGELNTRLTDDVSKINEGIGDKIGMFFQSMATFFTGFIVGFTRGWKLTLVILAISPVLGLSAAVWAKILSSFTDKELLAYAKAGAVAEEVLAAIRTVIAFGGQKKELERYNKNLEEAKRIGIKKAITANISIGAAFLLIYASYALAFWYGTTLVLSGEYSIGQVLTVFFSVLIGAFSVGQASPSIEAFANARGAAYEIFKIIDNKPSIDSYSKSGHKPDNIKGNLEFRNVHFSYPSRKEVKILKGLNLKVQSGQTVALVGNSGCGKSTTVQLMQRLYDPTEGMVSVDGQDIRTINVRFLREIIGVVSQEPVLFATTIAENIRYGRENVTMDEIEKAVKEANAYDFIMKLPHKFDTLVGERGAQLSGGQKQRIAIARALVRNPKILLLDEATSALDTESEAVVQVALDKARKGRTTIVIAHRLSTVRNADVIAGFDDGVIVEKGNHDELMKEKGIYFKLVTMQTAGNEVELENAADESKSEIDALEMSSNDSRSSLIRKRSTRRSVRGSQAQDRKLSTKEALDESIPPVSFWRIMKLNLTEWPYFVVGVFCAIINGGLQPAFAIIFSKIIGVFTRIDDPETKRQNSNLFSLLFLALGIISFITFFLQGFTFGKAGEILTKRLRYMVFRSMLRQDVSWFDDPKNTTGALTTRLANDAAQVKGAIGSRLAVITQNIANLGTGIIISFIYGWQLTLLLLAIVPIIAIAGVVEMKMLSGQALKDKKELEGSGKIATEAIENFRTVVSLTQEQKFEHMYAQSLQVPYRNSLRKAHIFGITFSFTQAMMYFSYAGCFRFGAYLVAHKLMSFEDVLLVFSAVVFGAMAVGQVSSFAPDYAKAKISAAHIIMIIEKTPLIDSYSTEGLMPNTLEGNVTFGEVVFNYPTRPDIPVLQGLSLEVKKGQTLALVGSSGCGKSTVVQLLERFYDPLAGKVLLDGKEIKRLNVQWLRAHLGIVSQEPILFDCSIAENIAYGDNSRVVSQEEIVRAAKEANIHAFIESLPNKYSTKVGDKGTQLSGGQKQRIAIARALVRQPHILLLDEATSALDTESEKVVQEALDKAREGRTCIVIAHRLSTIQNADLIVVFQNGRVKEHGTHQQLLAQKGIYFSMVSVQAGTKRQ

| Compound | EC50 [1, 14] [µM] | EC50 [1, 15] [µM] | EC50 [2] [µM] | solubility kinetic at 24 h [3] | logD at 24 h [4, 16] | Human Microsomes [5] | Rat Microsomes, (m) ([6]; Table 1, tested in the mouse not rat) | logD at 24 h ([4]; pH 7.4, read-out: logD) | Rat Microsomes [6] | EC50 [1, 17] [µM] | Rat S9 metabolic stability [7] [% remaining] | Human S9 metabolic stability [8] [% remaining] | inhibition at 1 µM [9] [%] | O. volvulus L5 % inhibition of viability [10] [%] | fold less soluble than 47 ([3]; 24 h) [fold] | Papp A→B [11] [×10⁻⁶ cm/s] | IC50 [12] [nM] | IC50 [13] [nM] |
| --- | --- | --- | --- | --- | --- | --- | --- | --- | --- | --- | --- | --- | --- | --- | --- | --- | --- | --- |
| Cc1cccnc1Nc1n[nH]c(-c2ccc(OC3CCOCC3)cn2)n1 [Compound 8, 3-Methyl-N-{5-[5-(oxan-4-yloxy)pyridin-2-yl]-4H-1,2,4-triazol-3-yl}pyridin-2-amine] | 0.01 | 0.009 | 0.004 | 202 µM (≈ 71.1 µg/mL) | 2 | 92 % remaining | 70 (m)^e % remaining | – | – | – | – | – | – | – | – | – | – | – |
| Cc1cccnc1Nc1nc(-c2cc(C(=O)N(C)C)c(OC(C)C)cn2)ns1 [Compound 17] | 0.63 | 0.626 | 0.5 | 154 µM (≈ 61.6 µg/mL) | 2.3 | 91 % remaining | – | 2.3 | 90 % remaining | – | – | – | – | – | – | – | – | – |
| CC(C)c1cccnc1Nc1nc(-c2ccc(OC3CC3)cn2)ns1 [Compound 23, 3-(5-Cyclopropoxypyridin-2-yl)-N-(3-isopropylpyridin-2-yl)-1,2,4-thiadiazol-5-amine] | 0.04 | 0.038 | 0.012 | – | 2.5 | – | – | 2.5 | – | < 0.1 | 78 | 39 | 100 | 100 | – | – | – | – |
| CC(C)Oc1cnc(-c2nsc(Nc3ncccc3C(C)C)n2)cc1C(F)(F)F [Compound 24, 3-(5-Isopropoxy-4-(trifluoromethyl)pyridin-2-yl)-N-(3-isopropylpyridin-2-yl)-1,2,4-thiadiazol-5-amine] | 0.05 | 0.051 | 0.75 | 1.05 µM (≈ 0.445 µg/mL) | 2.9 | 97 % remaining | – | 2.9 | 96 % remaining | < 0.1 | – | – | – | – | – | – | – | – |
| CC(C)Oc1cnc(-c2nsc(Nc3ncccc3N(C)C)n2)cc1C(F)(F)F [Compound 34] | 0.04 | 0.036 | 0.53 | – | 2.9 | 98 % remaining | – | 2.9 | 93 % remaining | – | – | – | – | – | 10 | – | – | – |
| Cc1cccnc1Nc1nc(-c2ncc(OC(C)C)cn2)ns1 [Compound 40, 3-(5-Isopropoxypyrimidin-2-yl)-N-(3-methylpyridin-2-yl)-1,2,4-thiadiazol-5-amine] | 2.35 | – | 2.9 | 12.3 µM (≈ 4.04 µg/mL) | 2.9 | 96^c % remaining | – | 2.9 | 90^c % remaining | – | – | – | – | – | – | – | – | – |
| CC(C)Oc1cnc(-c2nsc(Nc3ncccc3N(C)C(=O)C3CC3)n2)cc1C(F)(F)F [Compound 49, N-(2-((3-(5-Isopropoxy-4-(trifluoromethyl)pyridin-2-yl)-1,2,4-thiadiazol-5-yl)amino)pyridine-3-yl)-N-methylcyclopropanecarboxamide] | 1.11 | – | 3.7 | 2.67 µM (≈ 1.28 µg/mL) | 3.63 | – | – | 3.63 | – | – | – | – | – | – | – | 8.8 | > 30000 | 18300 |
| CC(=O)N(C)c1cc(C(F)(F)F)cnc1Nc1nc(-c2ccc(OC(C)C)cn2)ns1 [Compound 54, N-(2-((3-(5-Isopropoxypyridin-2-yl)-1,2,4-thiadiazol-5-yl)amino)-5-(trifluoromethyl)pyridin-3-yl)-N-methylacetamide] | 0.14 | 0.139 | 0.15 | 13.1 µM (≈ 5.95 µg/mL) | 3.13 | – | – | 3.13 | – | – | – | – | – | – | – | 9.9 | > 30000 | 6100 |
| CC(C)Oc1ccc(-c2nsc(Nc3ncccc3C(=O)N(C)C)n2)nc1 [Compound 61, 2-((3-(5-Isopropoxypyridin-2-yl)-1,2,4-thiadiazol-5-yl)amino)-N,N-dimethylnicotinamide] | 0.36 | 0.357 | 2.1 | 101 µM and 100.70 µM | 2.1 | – | – | 2.1 | – | – | – | – | – | – | – | 4.9 | > 30000 | 32500 |
